Experimental data reported in US6936723B2, “Synthetic salicylihalamides, apicularens and derivatives thereof” (Board of Regents, The University of Texas System, priority 2000, dated 2005).
pIC50: −log10 of the molar value. Where two headings read alike, the source gives them in different places.

Tests used:
H1299 = assay: Growth inhibition of tumor cell lines compared to TAXOL: H1299; type: cell-based; settings: Homo sapiens, NCI-H1299
Description: (§1) In addition, the ability of compounds 323a/c and 343 to inhibit growth of a number of tumor cell lines was tested and compared to TAXOL's ability to inhibit growth of these tumor cell lines.

H2009 = assay: Growth inhibition of tumor cell lines compared to TAXOL: H2009; type: cell-based; settings: Homo sapiens, NCI-H2009
Description: as §1

H358 = assay: Growth inhibition of tumor cell lines compared to TAXOL: H358; type: cell-based; settings: Homo sapiens, NCI-H358
Description: as §1

H2058 = assay: Growth inhibition of tumor cell lines compared to TAXOL: H2058; type: cell-based
Description: as §1

H175 = assay: Growth inhibition of tumor cell lines compared to TAXOL: H175; type: cell-based
Description: as §1

H1264 = assay: Growth inhibition of tumor cell lines compared to TAXOL: H1264; type: cell-based
Description: as §1

[1] = test system: human melanoma cell line SK-MEL-5; assay: Growth inhibition of the SK-MEL-5 human melanoma cell line (MTT assay); type: cell-based; settings: for GI50: Homo sapiens; for growth inhibitory activity in the cell-based assay: SK-MEL-5 cell-based assay
Description: A cell-based assay looking for growth inhibition of the SK-MEL 5 human melanoma cell line was performed.

[2] = target: T1, purified reconstituted V-ATPase from bovine brain (Bos taurus, UniProt P23956+P61420+Q29466+Q2TA24); assay: Inhibition of purified reconstituted V-ATPase (proton pumping); type: biochemical
T1 construct: from tissue; host or cells: bovine brain
Description: Therefore, the present invention provides a method for inhibiting the proton-pumping activity of V-ATPase by contacting V-ATPase, either in vitro or in vivo with the compounds of the present invention. […] See Boyd, M. R. et al., J Pharmacol. Exp. Ther. 297, 114-120 (2001); see also, PCT publication WO 00/51589 of Boyd et al. V-ATPase is composed of an ATPase domain and a proton translocating membraneous channel. […] See Crider, Xie and Stone, J. Biol. Chem. 269:17379-17381 (1994) for the experimental procedure for binding. […] See Example 7 and Table 5 below. See also Bill. Crider, Xie and Stone, J Biol. Chem. 269:17379-17381 (1994).
Others in the art typically use crude membrane preparations to assay V-ATPase activity.

NCI 60-cell line panel = assay: NCI 60-cell line human tumor screen (sulforhodamine B); type: cell-based; settings: 48 hours incubation, 10^−6 to 10^−10 molar
Description: The NCI 60-cell line human tumor screen is a measure of the effectiveness of a compound for inhibiting or killing various human cancers. It is a set of 60 different cancer cell lines against which chemical compounds can be tested against to determine if the compound has anti-cancer activity. Each compound has an individual “fingerprint” based on effectiveness in killing each of the 60 cancer cell lines.
The anti-cancer activity of the synthesized (+)- and (−)-salicylihalamide-A compounds of the present invention (compounds 78 in FIG. 10 and 301a/301c in FIG. 14.) was indistinguishable. […] Salicylihalamide derivatives, showing increased stability over natural salicylihalamide, were tested in the NCI 60 cell-line screen. This screen is an art recognized model. Prior to assay, synthesized compounds were stored in dimethylsulfoxide at −70° C. Five different test concentrations of each compound were prepared by diluting the stock solution into complete medium. Sample concentrations were 2× the final concentration and range from 10^−6 and 10^−10 molar. An aliquot of each concentration of each compound was added to separate microtiter wells containing the respective cell lines in culture medium. The plates were incubated for 48 hours at 37° C. with 5% CO2 and 100% humidity. Adherent cells were fixed by addition of cold 50% trichloracetic acid and incubation at 4° C. for 60 minutes. Suspended cells were fixed to the bottom of the well by addition of 80% trichloracetic acid. The supernatant was removed from each well and then each well was washed with deionized water and allowed to dry. Sulforhodamine B solution was added to each well and allowed to incubate for 10 minutes at room temperature. Unbound sulforhodamine B was removed by washing with 1% acetic acid. The wells were allowed to dry. Bound sulforhodamine B was solubilized using 10 mM Tris base and the optical density at 515 nanometers was determined.

SK-MEL-28 cells = assay: Anti-cancer activity against SK-MEL-28 cells; type: cell-based, human
Description: The inventor has accomplished the first synthesis of both […] and (−)-salicylihalamide A. The synthesis utilizes a highly efficient, trans-selective ring-closing olefin metathesis for the assembly of the benzolactone skeleton and can be readily adapted to obtain a variety of analogs. […] This cell line is one of the cell lines in the NCI 60 cell line screen.
The absolute configuration of natural salicylihalamide A (1a) was originally misassigned in Boyd et al., 1997. The correct configuration is represented by structure 89. The ultimate proof for this assignment came from a crystallographic analysis of a p-bromobenzoate derivative of salicylihalamide 90, prepared from 73 in a manner similar to the synthesis of 74. […] (−)-salicylihalamide A does have chemotherapeutic activity. […] This cell line is one of the cell lines in the NCI 60 cell line screen.

[3] = target: trans-membraneous proton channel domain of V-ATPase (Bos taurus, UniProt P23956+P61420+Q29466+Q2TA24); assay: Incubation with V-ATPase domains independently: proton channel domain; type: biochemical
Description: Therefore, the present invention provides a method for inhibiting the proton-pumping activity of V-ATPase by contacting V-ATPase, either in vitro or in vivo with the compounds of the present invention. Inhibition of the proton-pumping activity of V-ATPase is useful, inter alia, for the treatment and prevention of cancer and osteoporosis. […] See Boyd, M. R. et al., J Pharmacol. Exp. Ther. 297, 114-120 (2001); see also, PCT publication WO 00/51589 of Boyd et al. V-ATPase is composed of an ATPase domain and a proton translocating membraneous channel. […] See Crider, Xie and Stone, J. Biol. Chem. 269:17379-17381 (1994) for the experimental procedure for binding. This was shown by incubating select compounds of the present invention with the domains independently and showing that 70% of the channel activity was inhibited at 1 nM of the compound while there was virtually no interference with ATPase activity at the same concentration. See Example 7 and Table 5 below. See also Bill. Crider, Xie and Stone, J Biol. Chem. 269:17379-17381 (1994).

[4] = 48 h, SK-MEL-5, growth determined 2 days after addition by MTT assay, triplicate assays at 4 concentrations, read-out: GI50
[5] = purified reconstituted V-ATPase from bovine brain, inhibition of proton pumping, read-out: IC50

trans-membraneous proton channel domain of V-ATPase, sequence (P61420 whole entry, other chains not shown, the tested form may be a part): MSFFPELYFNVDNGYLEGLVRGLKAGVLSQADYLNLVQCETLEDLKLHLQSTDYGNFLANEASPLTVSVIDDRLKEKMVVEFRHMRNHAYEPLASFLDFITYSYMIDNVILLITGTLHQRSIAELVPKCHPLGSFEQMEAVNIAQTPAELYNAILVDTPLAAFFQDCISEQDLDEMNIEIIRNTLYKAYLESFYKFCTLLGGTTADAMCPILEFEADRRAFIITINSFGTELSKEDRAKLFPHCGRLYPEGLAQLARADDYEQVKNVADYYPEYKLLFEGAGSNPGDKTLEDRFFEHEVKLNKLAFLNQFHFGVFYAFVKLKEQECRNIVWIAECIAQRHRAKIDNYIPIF
trans-membraneous proton channel domain of V-ATPase, sequence (P23956 whole entry, other chains not shown, the tested form may be a part): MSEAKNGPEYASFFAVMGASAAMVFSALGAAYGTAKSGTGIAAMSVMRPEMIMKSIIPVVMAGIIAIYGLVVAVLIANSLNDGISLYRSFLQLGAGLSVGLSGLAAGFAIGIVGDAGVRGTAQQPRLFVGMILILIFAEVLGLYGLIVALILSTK
trans-membraneous proton channel domain of V-ATPase, sequence (Q29466 whole entry, other chains not shown, the tested form may be a part): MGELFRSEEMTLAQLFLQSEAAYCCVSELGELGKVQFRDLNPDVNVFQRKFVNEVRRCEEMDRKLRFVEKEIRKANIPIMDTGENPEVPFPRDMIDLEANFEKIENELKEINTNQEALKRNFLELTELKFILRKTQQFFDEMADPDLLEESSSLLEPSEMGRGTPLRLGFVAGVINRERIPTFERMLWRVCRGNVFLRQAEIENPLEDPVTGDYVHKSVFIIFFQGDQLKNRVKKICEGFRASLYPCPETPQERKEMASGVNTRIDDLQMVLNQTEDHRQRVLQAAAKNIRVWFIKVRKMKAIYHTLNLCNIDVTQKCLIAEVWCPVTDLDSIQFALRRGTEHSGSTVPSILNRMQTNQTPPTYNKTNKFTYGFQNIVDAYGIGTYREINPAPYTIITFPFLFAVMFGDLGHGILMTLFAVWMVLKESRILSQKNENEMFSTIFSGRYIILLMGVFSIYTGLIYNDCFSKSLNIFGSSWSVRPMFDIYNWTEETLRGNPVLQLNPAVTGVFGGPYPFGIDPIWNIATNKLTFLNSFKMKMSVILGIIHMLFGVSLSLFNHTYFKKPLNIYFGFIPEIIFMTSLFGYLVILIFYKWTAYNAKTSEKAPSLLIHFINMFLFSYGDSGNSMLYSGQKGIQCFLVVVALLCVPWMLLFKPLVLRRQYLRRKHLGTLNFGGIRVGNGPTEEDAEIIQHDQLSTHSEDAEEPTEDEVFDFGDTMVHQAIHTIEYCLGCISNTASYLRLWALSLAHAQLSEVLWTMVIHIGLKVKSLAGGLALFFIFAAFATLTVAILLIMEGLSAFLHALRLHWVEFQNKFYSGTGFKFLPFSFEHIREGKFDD
trans-membraneous proton channel domain of V-ATPase, sequence (Q2TA24 whole entry, other chains not shown, the tested form may be a part): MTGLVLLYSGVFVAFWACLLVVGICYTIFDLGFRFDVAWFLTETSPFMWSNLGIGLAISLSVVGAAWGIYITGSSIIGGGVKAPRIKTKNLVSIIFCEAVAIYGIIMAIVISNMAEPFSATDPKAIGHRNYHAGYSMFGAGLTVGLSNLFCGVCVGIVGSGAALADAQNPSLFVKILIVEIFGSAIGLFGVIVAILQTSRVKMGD

`CC(=O)O[C@H]1C(=O)[C@@]2(C)[C@H]([C@H](OC(=O)c3ccccc3)[C@]3(O)C[C@H](OC(=O)[C@H](O)[C@@H](NC(=O)c4ccccc4)c4ccccc4)C(C)=C1C3(C)C)[C@]1(OC(C)=O)CO[C@@H]1C[C@@H]2O` [TAXOL, reference compound] was tested, and the GI50 (H1299; cell line H1299, read-out: GI50) was 5 nM, the GI50 (H2009; cell line H2009, read-out: GI50) was 5 nM and the GI50 (H358; cell line H358, read-out: GI50) was 5 nM. For the same molecule, the GI50 (H2058; cell line H2058, read-out: GI50) was 5 nM, the GI50 (H175; cell line H175, read-out: GI50) was 5 nM and the GI50 (H1264; cell line H1264, read-out: GI50) was 5 nM.

Work on `CCCCC#CC(=O)N/C=C/CC1C[C@@H](O)[C@@H](C)C/C=C/Cc2cccc(O)c2C(=O)O1` (some centres unmarked) [Compound 350] yielded a GI50 [1, 4] of 300 nM and a pIC50 [2] of 9.00.

Molecule `CO/C1=C\C(C)=C\[C@@H](C)[C@@H](O)[C@@H](C)C/C(C)=C/C=C/[C@H](OC)[C@@H]([C@@H](C)[C@@H](O)[C@H](C)[C@@]2(O)C[C@@H](O)[C@H](C)[C@@H](C(C)C)O2)OC1=O` [Bafilomycin A, reference compound] has a pIC50 [2, 5] of 8.51.

`CCCCCSC(=O)N/C=C/CC1C[C@@H](O)[C@@H](C)C/C=C/Cc2cccc(O)c2C(=O)O1` (some centres unmarked) [Compound 352] was tested, and the GI50 [1, 4] was 450 nM and the pIC50 [2] was 8.74.

Molecule `C[C@H]1C/C=C/Cc2cccc(O)c2C(=O)OC(C/C=C/NC(=O)C#Cc2ccccc2)C[C@H]1O` (some centres unmarked) [Compound 349] has a GI50 [1, 4] of 300 nM and a pIC50 [2] of 9.12.

`CCC=CC=CC(=O)NC=CCC1CC2CC(O)CC(Cc3cccc(O)c3C(=O)O1)O2` (centres unmarked) [Apicularen A] was tested, and the GI50 [1, 4] was 6 nM and the pIC50 [2] was over 9.00.

`CCCCCCC(=O)N/C=C/C[C@H]1C[C@@H](O)[C@@H](C)C/C=C/Cc2cccc(O)c2C(=O)O1` [Compound 346] was tested, and the GI50 [1, 4] was 380 nM and the pIC50 [2] was 9.10.

With `CCCCCCC(=O)N(/C=C/C[C@H]1C[C@@H](O)[C@@H](C)C/C=C/Cc2cccc(O)c2C(=O)O1)C(=O)N/C=C/C[C@H]1C[C@@H](O)[C@@H](C)C/C=C/Cc2cccc(O)c2C(=O)O1` [Compound 345] the GI50 [1, 4] was 600 nM and the pIC50 [2] was 8.52.

In the case of `CC(C)=CCC/C(C)=C/CC/C(C)=C/COC(=O)N/C=C/CC1C[C@@H](O)[C@@H](C)C/C=C/Cc2cccc(O)c2C(=O)O1` (some centres unmarked) [Compound 353], the GI50 [1, 4] was over 20000 nM and the pIC50 [2] was under 5.74.

`CCCCCOC(=O)NCCC[C@H]1C[C@@H](O)[C@@H](C)CCCCc2cccc(O)c2C(=O)O1` [Compound 362] was tested, and the GI50 [1, 4] was over 20000 nM, the “growth inhibitory activity in the cell-based assay” value (“growth inhibitory activity” for short) [1] was “completely abolished antiproliferative potential” and the pIC50 [2] was 7.12.

For `CCCCCOC(=O)N/C=C/C[C@H]1C[C@@H](O)[C@@H](C)C/C=C/Cc2cccc(O)c2C(=O)O1` [Compound 351], the GI50 [1, 4] was 500 nM and the pIC50 [2] was 9.70.

`CCCCCOC(=O)N/C=C/C[C@H]1C[C@@H](O)[C@@H](C)C/C=C/Cc2cccc(OC(=O)c3ccccc3)c2C(=O)O1` [Compound 366] was tested, and the GI50 [1, 4] was 1000 nM and the pIC50 [2, 5] was 6.52.

For `CCCCCOC(=O)N/C=C/C[C@H]1C[C@@H](O)[C@@H](C)CCCCc2cccc(O)c2C(=O)O1` [Compound 361], the GI50 [1, 4] was 8000 nM, the “growth inhibitory activity” value [1] was “retained a significant, although attenuated, level of growth inhibitory activity” and the pIC50 [2] was 8.03.

With `C=CCOC(=O)/C=C/CC1C[C@@H](O)[C@@H](C)C/C=C/Cc2cccc(O)c2C(=O)O1` (some centres unmarked) [Compound 335b] the GI50 [1, 4] was over 20000 nM, the “growth inhibitory activity” value [1] was “completely inactive” and the pIC50 [2, 5] was 6.64.

For `CC/C=C\C=C/C(=O)N(/C=C/C[C@H]1C[C@@H](O)[C@@H](C)C/C=C/Cc2cccc(O)c2C(=O)O1)C(=O)N/C=C/C[C@H]1C[C@@H](O)[C@@H](C)C/C=C/Cc2cccc(O)c2C(=O)O1` [Compound 343], the GI50 ([1]; SK-MEL-5, 48 h) was 40 nM, the GI50 (H1299) was 5 nM and the GI50 (H2009) was 1.6 nM. For the same molecule, the GI50 (H358) was 10 nM, the GI50 (H2058) was 6.3 nM and the GI50 (H175) was 0.2 nM. For the same molecule, the GI50 (H1264) was 31.6 nM and the pIC50 [2] was 9.43.

`CC/C=C\C=C/C(=O)N/C=C/C[C@H]1C[C@@H](O)[C@@H](C)C/C=C/Cc2cccc(O)c2C(=O)O1` [301a/301c] gave a GI50 ([1]; SK-MEL-5, 48 h) of 30 nM, a GI50 (H1299) of 3.2 nM and a GI50 (H2009) of 2 nM. The GI50 (H358) was 1.6 nM, the GI50 (H2058) was 3.2 nM and the GI50 (H175) was 0.2 nM. For the same molecule, the GI50 (H1264) was 31.6 nM, the pIC50 [2] was 9.47 and the “activity / differential cytotoxicity profile in the NCI 60-cell line screen” value (NCI 60-cell line panel; listed as 1:1 mixture of salicylihalamide A (1) and C22-E isomer 211) was “indistinguishable, within the limits of experimental error, from natural salicylihalamide A”.

(+)-salicylihalamide A [Compound 87] was tested, and the pIC50 [2, 5] was 6.57, the “anti-cancer activity against SK-MEL-28 cells” value (SK-MEL-28 cells; at 20 μM) was “inactive” and the “activity / differential cytotoxicity profile in the NCI 60-cell line screen” value (NCI 60-cell line panel) was “completerly inactive”. The “activity / differential cytotoxicity profile in the NCI 60-cell line screen” value (NCI 60-cell line panel; listed as ent-301a) was “devoid of growth inhibitory activity”.

In the case of `CC/C=C\C=C/C(=O)N/C=C/C[C@H]1C[C@@H](O)[C@@H](C)C/C=C/Cc2cccc(O)c2C(=O)O1` [Compound 301a, salicylihalamide A], the “mode of V-ATPase inhibition (reversibility)” value [2] was “reversible inhibitor”, the “anti-cancer activity against SK-MEL-28 cells” value (SK-MEL-28 cells; at 10 nM) was “active” and the “activity / differential cytotoxicity profile in the NCI 60-cell line screen” value (NCI 60-cell line panel) was “differential cytotoxicity profile undistinguishable from the natural product”. The “binding site on V-ATPase” value [3] was “membrane spanning Vo proton channel”.

For `CCCCCCCC(=O)OCC[C@H]1C[C@@H](O)[C@@H](C)C/C=C/Cc2cccc(O)c2C(=O)O1` [Compound 355], the GI50 [1, 4] was over 20000 nM, the “growth inhibitory activity” value [1] was “completely inactive” and the pIC50 [2, 5] was under 6.00.
